Measured values published in PubChem BioAssay AID1963853 (Molecular Pharmacology Branch, DTP, NCI, 2024).

Tested on: 266295-075-R-J1-PDC spheroid viability
Assay: Anticancer human tumor 266295-075-R-J1-PDC patient-derived head and neck squamous carcinoma cell line growth inhibition [POLQ]
Conditions: spheroids with HUVEC and MSC; for IC50: curve of first compound; for viability, T/C: stronger effect = lower value
In short: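 PDC + HUVEC + MSC complex spheroids; POLQ inhibitors ± partner drugs; top conc. at/near clinical Cmax, else 10 microM (SN-38 1 microM), half-log dilutions; 37 degrees C, 5% CO2.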

[1] = second compound 0.0316 µM, first compound 0.0316 µM
[2] = second compound 0.0316 µM, first compound 0.1 µM
[3] = second compound 0.0316 µM, first compound 0.316 µM
[4] = second compound 0.0316 µM, first compound 1 µM
[5] = second compound 0.0316 µM, first compound 3.16 µM
[6] = second compound 0.0316 µM, first compound 10 µM
[7] = second compound 0.1 µM, first compound 0.0316 µM
[8] = second compound 0.1 µM, first compound 0.1 µM
[9] = second compound 0.1 µM, first compound 0.316 µM
[10] = second compound 0.1 µM, first compound 1 µM
[11] = second compound 0.1 µM, first compound 3.16 µM
[12] = second compound 0.1 µM, first compound 10 µM
[13] = second compound 0.316 µM, first compound 0.0316 µM
[14] = second compound 0.316 µM, first compound 0.1 µM
[15] = second compound 0.316 µM, first compound 0.316 µM
[16] = second compound 0.316 µM, first compound 1 µM
[17] = second compound 0.316 µM, first compound 3.16 µM
[18] = second compound 0.316 µM, first compound 10 µM
[19] = second compound 1 µM, first compound 0.0316 µM
[20] = second compound 1 µM, first compound 0.1 µM
[21] = second compound 1 µM, first compound 0.316 µM
[22] = second compound 1 µM, first compound 1 µM
[23] = second compound 1 µM, first compound 3.16 µM
[24] = second compound 1 µM, first compound 10 µM
[25] = second compound 3.16 µM, first compound 0.0316 µM
[26] = second compound 3.16 µM, first compound 0.1 µM
[27] = second compound 3.16 µM, first compound 0.316 µM
[28] = second compound 3.16 µM, first compound 1 µM
[29] = second compound 3.16 µM, first compound 3.16 µM
[30] = second compound 3.16 µM, first compound 10 µM
[31] = second compound 10 µM, first compound 0.0316 µM
[32] = second compound 10 µM, first compound 0.1 µM
[33] = second compound 10 µM, first compound 0.316 µM
[34] = second compound 10 µM, first compound 1 µM
[35] = second compound 10 µM, first compound 3.16 µM
[36] = second compound 10 µM, first compound 10 µM
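Note: spheroids exposed to compounds for seven days before readout.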

For `COc1ccc([C@@H](O)c2cc(-c3ncnc4cc(N5CCOCC5)ccc34)c(F)cc2Cl)nn1` + Nc1ccc(C#CCN(C(=O)Cc2ncc(C(F)(F)F)cc2C(F)(F)F)c2ccc(F)cc2)nn1, which IC50 (second compound 0.0316 µM) is on record?
Its IC50 is 5.25 µM.

What about the IC50 (second compound 0.1 µM) of the same compound?
The IC50 was 2.47 µM.

What about the IC50 (second compound 0.316 µM) of the same compound?
Its IC50 is 4.85 µM.

And the IC50 (second compound 1 µM)?
Its IC50 is 2.71 µM.

And the IC50 (second compound 3.16 µM)?
The IC50 was 3.24 µM.

And the IC50 (second compound 10 µM)?
The IC50 was 2.49 µM.

What about the viability, T/C [1] of the same compound?
Its viability, T/C is 87.8%.

And the viability, T/C [2]?
The viability, T/C was 91.7%.

And the viability, T/C [3]?
The viability, T/C was 72.4%.

And the viability, T/C [4]?
The viability, T/C was 89%.

And the viability, T/C [5]?
Its viability, T/C is 59.4%.

And the viability, T/C [6]?
Its viability, T/C is 38%.

And the viability, T/C [7]?
The viability, T/C was 78.3%.

And the viability, T/C [8]?
The viability, T/C was 89.7%.

What about the viability, T/C [9] of the same compound?
The viability, T/C was 71.6%.

And the viability, T/C [10]?
The viability, T/C was 73.9%.

And the viability, T/C [11]?
The viability, T/C was 43.2%.

What about the viability, T/C [12] of the same compound?
Its viability, T/C is 40%.

And the viability, T/C [13]?
The viability, T/C was 93%.

And the viability, T/C [14]?
The viability, T/C was 94.9%.

What about the viability, T/C [15] of the same compound?
Its viability, T/C is 71.4%.

What about the viability, T/C [16] of the same compound?
The viability, T/C was 75.4%.

And the viability, T/C [17]?
Its viability, T/C is 57.4%.

And the viability, T/C [18]?
The viability, T/C was 37.7%.

What about the viability, T/C [19] of the same compound?
The viability, T/C was 113%.

What about the viability, T/C [20] of the same compound?
Its viability, T/C is 120%.

What about the viability, T/C [21] of the same compound?
The viability, T/C was 81.1%.

What about the viability, T/C [22] of the same compound?
The viability, T/C was 71%.

And the viability, T/C [23]?
Its viability, T/C is 49.3%.

What about the viability, T/C [24] of the same compound?
Its viability, T/C is 29.6%.

And the viability, T/C [25]?
Its viability, T/C is 98.6%.

What about the viability, T/C [26] of the same compound?
Its viability, T/C is 109%.

And the viability, T/C [27]?
The viability, T/C was 82.8%.

What about the viability, T/C [28] of the same compound?
The viability, T/C was 65.9%.

What about the viability, T/C [29] of the same compound?
Its viability, T/C is 55%.

What about the viability, T/C [30] of the same compound?
The viability, T/C was 38.2%.

What about the viability, T/C [31] of the same compound?
Its viability, T/C is 104%.

What about the viability, T/C [32] of the same compound?
The viability, T/C was 94.2%.

What about the viability, T/C [33] of the same compound?
Its viability, T/C is 87.9%.

What about the viability, T/C [34] of the same compound?
Its viability, T/C is 61.2%.

What about the viability, T/C [35] of the same compound?
Its viability, T/C is 46.8%.

And the viability, T/C [36]?
Its viability, T/C is 42.6%.

What does the source list for `O=c1[nH]cc(F)c(=O)[nH]1` + COC1C(OC(N)=O)C(O)C(Oc2ccc3c(O)c(NC(=O)c4ccc(O)c(CC=C(C)C)c4)c(=O)oc3c2C)OC1(C)C?
IC50 (second compound 0.0316 µM): > 10 µM; IC50 (second compound 0.1 µM): > 10 µM; IC50 (second compound 0.316 µM): > 10 µM; IC50 (second compound 1 µM): > 10 µM; IC50 (second compound 3.16 µM): > 10 µM; IC50 (second compound 10 µM): > 10 µM; viability, T/C [1]: 103%; viability, T/C [2]: 86.2%; viability, T/C [3]: 93.1%; viability, T/C [4]: 107%; viability, T/C [5]: 96.1%; viability, T/C [6]: 100%; viability, T/C [7]: 106%; viability, T/C [8]: 110%; viability, T/C [9]: 86.8%; viability, T/C [10]: 93.6%; viability, T/C [11]: 89%; viability, T/C [12]: 103%; viability, T/C [13]: 103%; viability, T/C [14]: 106%; viability, T/C [15]: 97.3%; viability, T/C [16]: 97.3%; viability, T/C [17]: 91.7%; viability, T/C [18]: 89%; viability, T/C [19]: 94.2%; viability, T/C [20]: 122%; viability, T/C [21]: 93.2%; viability, T/C [22]: 111%; viability, T/C [23]: 90.6%; viability, T/C [24]: 89.9%; viability, T/C [25]: 112%; viability, T/C [26]: 93.5%; viability, T/C [27]: 108%; viability, T/C [28]: 97.8%; viability, T/C [29]: 105%; viability, T/C [30]: 90.5%; viability, T/C [31]: 102%; viability, T/C [32]: 103%; viability, T/C [33]: 96.2%; viability, T/C [34]: 103%; viability, T/C [35]: 98.7%; viability, T/C [36]: 78.9%

Which results are given for `CC1COCCN1c1cc(C2(S(C)(=N)=O)CC2)nc(-c2ccnc3[nH]ccc23)n1` (stereo unspecified) + Nc1ccc(C#CCN(C(=O)Cc2ncc(C(F)(F)F)cc2C(F)(F)F)c2ccc(F)cc2)nn1?
IC50 (second compound 0.0316 µM): > 10 µM; IC50 (second compound 0.1 µM): > 10 µM; IC50 (second compound 0.316 µM): 8.58 µM; IC50 (second compound 1 µM): 9.41 µM; IC50 (second compound 3.16 µM): > 10 µM; IC50 (second compound 10 µM): > 10 µM; viability, T/C [1]: 110%; viability, T/C [2]: 93.3%; viability, T/C [3]: 83.4%; viability, T/C [4]: 75.5%; viability, T/C [5]: 67.5%; viability, T/C [6]: 63%; viability, T/C [7]: 102%; viability, T/C [8]: 116%; viability, T/C [9]: 92%; viability, T/C [10]: 93.9%; viability, T/C [11]: 80.2%; viability, T/C [12]: 57.2%; viability, T/C [13]: 81.9%; viability, T/C [14]: 102%; viability, T/C [15]: 92.5%; viability, T/C [16]: 79%; viability, T/C [17]: 78.4%; viability, T/C [18]: 45.6%; viability, T/C [19]: 97.8%; viability, T/C [20]: 109%; viability, T/C [21]: 96.6%; viability, T/C [22]: 87.6%; viability, T/C [23]: 67.6%; viability, T/C [24]: 48.9%; viability, T/C [25]: 89.9%; viability, T/C [26]: 141%; viability, T/C [27]: 100%; viability, T/C [28]: 92.8%; viability, T/C [29]: 69.4%; viability, T/C [30]: 57.3%; viability, T/C [31]: 95.4%; viability, T/C [32]: 99%; viability, T/C [33]: 95.5%; viability, T/C [34]: 92.7%; viability, T/C [35]: 70.6%; viability, T/C [36]: 62.9%
